Experimental data published in patent US9045650B2, “Polymer with salt groups and antifouling coating composition comprising said polymer” (AKZO NOBEL COATINGS INTERNATIONAL B.V., priority 2008, dated 2015).

Experiment: Salt formation of monomeric salts analysed by spectroscopic methods (IR, 1H NMR) and observation on mixing
Assay type: physicochemical
Conditions: solid sample, ATR
Description: The monomeric salt was analysed using infra-red (IR) spectroscopy (solid sample analysis using Avatar 360 infra-red spectrometer with Golden Gate diamond ATR attachment).
In an effort to further illustrate the relationship between acid/base pKa and the stability of the resulting polymer, a series of monomeric salts was prepared and analysed by spectroscopic methods.
Each of the monomeric salts were prepared by mixing the constituent acid/base starting materials in methanol at a concentration of 1.968 M. Following the addition of the acid/base starting materials, the mixture was stirred at room temperature for 24 h. The monomeric salt was then isolated by evaporation of the solvent.
^1H NMR spectroscopy was carried out on a CDCl3 solution of the monomeric salt (0.0827 M). Peaks associated with resonances for both CH2 groups present in the DMAEMA moiety were seen to shift downfield in the spectrum of this sample when compared to the reference spectrum of the DMAEMA starting material (CH2—CH2—NMe2 δ 4.25 shifted to δ 4.6 and CH2—CH2—NMe2 δ 2.6 shifted to δ 3.5). […] This is attributed to the change in the chemical environment of the CH2 resonances as a result of the complete protonation of the neighbouring NMe2 moiety.

| salt formation by IR spectroscopy | Structure (SMILES) |
| --- | --- |
| incomplete salt formation | C=C(C)C(=O)NCCCN(C)C.CCCCCCCCCCCCCCCC(=O)O [Comparative Example A (monomeric salt)] |
| incomplete salt formation | C=C(C)C(=O)NCCCN(C)C.CCCCCC(=O)O [Comparative Example C] |
